Results from the NIST ThermoML archive (doi:10.1021/je034087q).

Experiment: xn = mol fraction of the nth substance listed
Details: Fluid (supercritical or subcritical phases), x2 = 0.901

CCCCC [pentane] + O=C=O
mass density [kg/m3]
Details | 326.15 K | 328.15 K
8540 kPa | 461 | –
8560 kPa | 465 | –
8580 kPa | 469 | –
8610 kPa | 472 | –
8630 kPa | 476 | –
8650 kPa | – | 431
8670 kPa | 481 | –
8690 kPa | – | 436
8700 kPa | 486 | –
8720 kPa | – | 442
8740 kPa | 491 | –
8760 kPa | – | 448
8780 kPa | 496 | –
8830 kPa | – | 459
8840 kPa | 503 | –
8870 kPa | 509 | –
8880 kPa | – | 465
8920 kPa | 516 | –
8930 kPa | – | 473
8970 kPa | 520 | 475
9010 kPa | 524 | –
9030 kPa | – | 483
9080 kPa | 531 | –
9100 kPa | – | 491
9160 kPa | 538 | 499
9220 kPa | 544 | –
9230 kPa | – | 507
9320 kPa | – | 517
9350 kPa | 551 | –
9410 kPa | – | 524
9420 kPa | 558 | –
9500 kPa | 562 | –
9530 kPa | – | 533
9560 kPa | 567 | –
9630 kPa | – | 542
9680 kPa | 573 | –
9760 kPa | 579 | 552
9870 kPa | 583 | –
9930 kPa | – | 562
9990 kPa | 590 | –
10030 kPa | – | 568
10130 kPa | 595 | 572
10230 kPa | – | 579
10250 kPa | 601 | –
10350 kPa | – | 584
10380 kPa | – | 586
10410 kPa | 608 | –
10490 kPa | – | 590
10580 kPa | – | 594
10720 kPa | 618 | –
10750 kPa | – | 601
10880 kPa | – | 606
10920 kPa | 625 | –
11060 kPa | – | 612
11140 kPa | – | 614
11150 kPa | 631 | –
11380 kPa | 638 | –
11500 kPa | – | 625
11660 kPa | 645 | –
11670 kPa | – | 629
11800 kPa | – | 634
11950 kPa | 652 | –
11970 kPa | – | 639
12180 kPa | – | 642
12280 kPa | 658 | –
12340 kPa | – | 646
12560 kPa | – | 652
12630 kPa | 666 | –
12760 kPa | – | 655
13020 kPa | – | 661
13030 kPa | 673 | –
13280 kPa | – | 665
13480 kPa | 680 | –
13560 kPa | – | 669
13790 kPa | – | 674
13950 kPa | 686 | –
14260 kPa | – | 682
14540 kPa | 696 | –
14800 kPa | 700 | –
14810 kPa | – | 691
